In patent publication US20260034277A1, “SYSTEMS AND METHODS FOR PATHOGEN INACTIVATION OF BLOOD PRODUCTS” (Cerus Corporation, priority 2024, published 2026):

Key:
[1] = Residual amotosalen (S-59) pre- and post-UVA in treated platelets, HPLC, manual dosing; type: physicochemical; conditions: for Post-UVA S-59: platelets 47% plasma/53% PAS
Procedure: Multiple studies were performed to determine the level of residual compound remaining after photochemical treatment of platelets with a psoralen for pathogen inactivation. More specifically, the studies were performed using a range of platelet volumes (e.g., 200 mL-450 mL; 50 mL volume increments) and using a single initial input concentration of the psoralen compound, amotosalen (S-59) by changing input volume. For each volume tested, units of platelets, prepared in 47% plasma/53% PAS, were pooled and split into two to three individual units, each in an illumination container of an INTERCEPT® Blood System processing set. The individual units were each dosed with amotosalen from an initial starting concentration (e.g., stock solution) at a volume needed to achieve a final 70 μM target concentration for each platelet volume, mixed well, and subjected to illumination with UVA light. The doses of UVA light tested for each volume included, for example, one or more light doses ranging from 2.5 J/cm^2 to 6.5 J/cm^2. (e.g., 2.5-4.5 J/cm^2 for 200 mL, 3.5-4.0 J/cm^2 for 250 mL 4.5-6.5 J/cm^2 for 300 mL, 5.2 J/cm^2 for 350 mL, 5.5-6.5 J/cm^2 for 400 mL, 6.4-6.5 J/cm^2 for 450 mL). UVA treatment was performed in the illumination container using an illuminator device with LED light (e.g., narrow bandwidth) having peak wavelength between 340-350 nm. Samples were collected both pre- and post-UVA illumination for HPLC analysis of amotosalen concentration.
From the multiple studies above, UVA light doses that provided low residual amotosalen levels (e.g., less than 7.5 μM) post-UVA treatment were selected for each specified platelet volume. These light doses are shown in Table 1 below, together with a corresponding measured volume of platelets, which the light dose may be used in conjunction with. This exemplary light dose and volume relationship identified in the studies may be further defined in the graph of FIG. 4A, which plots UVA light dose versus volume for achieving low residual amotosalen levels.
Each of the 40 μM, 50 μM, 60 μM and 70 μM test conditions used 250 mL sample volumes and UVA light doses of 3.8 J/cm^2. Amotosalen concentrations were determined before and after illumination with UVA.

Klebsiella pneumoniae = Klebsiella pneumoniae inactivation in platelet units with amotosalen/UVA, colony forming unit assay; type: cell-based
Procedure: A study was performed to evaluate pathogen inactivation with treatment profiles from Example 1 and the bacterium Klebsiella pneumoniae. Units of platelets, prepared in 47% plasma/53% PAS at a volume of 250 mL (except the 70 μM study group at a volume of 200 mL), were inoculated with an overnight culture of Klebsiella pneumoniae (targeting the final concentration in unit of approximately 6 log CFU/mL) and dosed with the target amotosalen concentration (40 μM, 45 μM, 55 μM or 70 μM) in an illumination container of an INTERCEPT® Blood System processing set. The units were mixed well, and samples were collected from each unit prior to UV illumination to determine pre-treatment bacterial titers and amotosalen concentration. The Klebsiella-contaminated platelet units were then subjected to a UVA light dose of 3.8 J/cm^2 (3.2 J/cm^2 for the 200 mL units) using an illuminator with LED light sources having peak wavelength between 340-350 nm. Samples were collected post-illumination and both the pre- and post-UVA illumination samples were analyzed by standard colony forming unit assay to determine the level of bacterial inactivation.
A similar study was performed with the bacterium Klebsiella pneumoniae. Four units of platelets in 47% plasma/53% PAS at a volume of 450 mL were inoculated in a 1.3 L illumination container with an overnight culture of Klebsiella pneumoniae at a target input pathogen concentration of approximately 8 log CFU/mL per unit and dosed with S-59 to achieve a target concentration of 55 μM. Samples were collected pre- and post-UVA illumination with a light dose of 6.3 J/cm^2 for determination of bacterial titers by standard colony forming unit assay and S-59 concentration by HPLC.

[2] = target S-59 40 μM, 250 mL platelets, UVA 3.8 J/cm^2
[3] = target S-59 45 μM, 250 mL platelets, UVA 3.8 J/cm^2
[4] = target S-59 55 μM, 250 mL platelets, UVA 3.8 J/cm^2
[5] = target S-59 70 μM, 200 mL platelets, UVA 3.2 J/cm^2

With `Cc1oc2c(C)c3oc(=O)cc(C)c3cc2c1COCCN` [S-59, 3-(2-aminoethoxymethyl)-2,5,9-trimethylfuro[3,2-g]chromen-7-one] the “Post-UVA S-59” value ([1]; 200 mL, target 70 μM, UVA 3.2 J/cm^2) was 4.5 ± 1.5 µM, the “Post-UVA S-59” value ([1]; 250 mL, target 70 μM, UVA 3.8 J/cm^2) was 5.0 ± 1.1 µM and the “Post-UVA S-59” value ([1]; 300 mL, target 70 μM, UVA 4.5 J/cm^2) was 5.1 ± 1.3 µM. The “Post-UVA S-59” value ([1]; 350 mL, target 70 μM, UVA 5.2 J/cm^2) was 5.0 ± 0.6 µM, the “Post-UVA S-59” value ([1]; 400 mL, target 70 μM, UVA 6.0 J/cm^2) was 4.4 ± 0.8 µM and the “Post-UVA S-59” value ([1]; 450 mL, target 70 μM, UVA 6.4 J/cm^2) was 5.2 ± 0.8 µM. For the same compound, the “Post-UVA residual amotosalen concentration” value ([1]; target 40 μM, 250 mL, UVA 3.8 J/cm^2) was 2.3 ± 0.7 µM, the “Post-UVA residual amotosalen concentration” value ([1]; target 50 μM, 250 mL, UVA 3.8 J/cm^2) was 3.0 ± 0.8 µM and the “Post-UVA residual amotosalen concentration” value ([1]; target 60 μM, 250 mL, UVA 3.8 J/cm^2) was 3.9 ± 1.4 µM. The “Post-UVA residual amotosalen concentration” value ([1]; target 70 μM, 250 mL, UVA 3.8 J/cm^2) was 5.0 ± 1.1 µM, the Post-UVA titer (Klebsiella pneumoniae; device-dosed S-59 target 55 μM, 450 mL platelets, 1.3 L container, UVA 6.3 J/cm^2) was 0.3 ± 0.4 cfu/mL and the “bacterial inactivation (log reduction)” value (Klebsiella pneumoniae; each of the four target amotosalen input concentrations (40, 45, 55, 70 μM)) was “greater than 5 logs”. The “Log Reduction” value (Klebsiella pneumoniae; [2]) was 5.6 ± 0.8 log, the “Post-UVA CFU/mL” value (Klebsiella pneumoniae; [2]) was 6.7 ± 11.5 CFU/mL and the “Log Reduction” value (Klebsiella pneumoniae; [3]) was 5.9 ± 0.0 log. The “Post-UVA CFU/mL” value (Klebsiella pneumoniae; [3]) was 0.2 ± 0.1 CFU/mL, the “Log Reduction” value (Klebsiella pneumoniae; [4]) was 6.0 ± 0.1 log and the “Post-UVA CFU/mL” value (Klebsiella pneumoniae; [4]) was 0.4 ± 0.5 CFU/mL. For the same compound, the “Log Reduction” value (Klebsiella pneumoniae; [5]) was at least 6.1 ± 0.1 log and the “Post-UVA CFU/mL” value (Klebsiella pneumoniae; [5]) was 0.03 ± 0.1 CFU/mL.
